Source: publication PMC3914206

Columns and labels:
Format in all cases: binding
Details in all cases: Compound Concentration 10 µM
panel of 442 kinases [1] = molecular target: T1, panel of 442 kinases (Homo sapiens, UniProt Q12866)
T1 construct: purchased KINOMEscan
T1 sequence (Q12866 21-999): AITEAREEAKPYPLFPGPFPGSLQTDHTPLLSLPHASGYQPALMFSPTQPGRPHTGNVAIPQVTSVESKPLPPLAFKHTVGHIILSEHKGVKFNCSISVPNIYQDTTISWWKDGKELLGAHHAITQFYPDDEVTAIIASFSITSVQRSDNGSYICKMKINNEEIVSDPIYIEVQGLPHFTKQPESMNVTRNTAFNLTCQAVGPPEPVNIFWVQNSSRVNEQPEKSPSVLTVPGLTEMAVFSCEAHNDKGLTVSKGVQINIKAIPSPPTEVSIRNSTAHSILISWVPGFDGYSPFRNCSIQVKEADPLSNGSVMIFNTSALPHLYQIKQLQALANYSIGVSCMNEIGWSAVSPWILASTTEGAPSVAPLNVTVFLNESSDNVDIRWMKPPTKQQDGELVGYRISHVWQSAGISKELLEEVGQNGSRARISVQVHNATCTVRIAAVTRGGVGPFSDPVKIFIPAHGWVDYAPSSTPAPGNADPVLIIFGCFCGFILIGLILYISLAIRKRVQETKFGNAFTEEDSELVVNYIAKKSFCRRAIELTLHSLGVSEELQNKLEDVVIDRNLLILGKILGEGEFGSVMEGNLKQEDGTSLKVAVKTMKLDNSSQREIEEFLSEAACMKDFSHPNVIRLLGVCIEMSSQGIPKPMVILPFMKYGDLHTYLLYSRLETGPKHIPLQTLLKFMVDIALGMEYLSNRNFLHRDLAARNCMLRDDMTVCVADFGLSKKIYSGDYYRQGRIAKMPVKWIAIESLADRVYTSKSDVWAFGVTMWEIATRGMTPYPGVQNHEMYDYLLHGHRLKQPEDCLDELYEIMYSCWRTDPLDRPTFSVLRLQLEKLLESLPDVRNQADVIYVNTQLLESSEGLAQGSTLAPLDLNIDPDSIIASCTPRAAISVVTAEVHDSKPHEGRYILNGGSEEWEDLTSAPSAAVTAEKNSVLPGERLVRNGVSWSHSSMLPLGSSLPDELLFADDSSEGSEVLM
Description: (§1) We assessed the selectivity of members of this scaffold using the KINOMEscan methodology across a near comprehensive panel of 442 kinases [[18,27]].

panel of 442 kinases [2] = molecular target: T2, panel of 442 kinases (Homo sapiens, UniProt P36507)
T2 construct: purchased KINOMEscan
T2 sequence (P36507 whole entry): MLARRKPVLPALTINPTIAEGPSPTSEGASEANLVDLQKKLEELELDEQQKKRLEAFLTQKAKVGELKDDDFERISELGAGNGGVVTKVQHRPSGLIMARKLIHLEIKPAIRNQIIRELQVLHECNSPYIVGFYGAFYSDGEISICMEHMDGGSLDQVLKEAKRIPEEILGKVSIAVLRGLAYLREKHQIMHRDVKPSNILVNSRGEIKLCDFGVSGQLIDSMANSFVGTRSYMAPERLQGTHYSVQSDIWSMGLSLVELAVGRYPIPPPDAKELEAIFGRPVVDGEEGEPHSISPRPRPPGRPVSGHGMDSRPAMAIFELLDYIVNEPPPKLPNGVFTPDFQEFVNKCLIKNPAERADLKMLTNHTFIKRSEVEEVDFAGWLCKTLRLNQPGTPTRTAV
Description: as §1

panel of 442 kinases [3] = molecular target: T3, panel of 442 kinases (Homo sapiens, UniProt O95819)
T3 construct: purchased KINOMEscan
T3 sequence (O95819 whole entry): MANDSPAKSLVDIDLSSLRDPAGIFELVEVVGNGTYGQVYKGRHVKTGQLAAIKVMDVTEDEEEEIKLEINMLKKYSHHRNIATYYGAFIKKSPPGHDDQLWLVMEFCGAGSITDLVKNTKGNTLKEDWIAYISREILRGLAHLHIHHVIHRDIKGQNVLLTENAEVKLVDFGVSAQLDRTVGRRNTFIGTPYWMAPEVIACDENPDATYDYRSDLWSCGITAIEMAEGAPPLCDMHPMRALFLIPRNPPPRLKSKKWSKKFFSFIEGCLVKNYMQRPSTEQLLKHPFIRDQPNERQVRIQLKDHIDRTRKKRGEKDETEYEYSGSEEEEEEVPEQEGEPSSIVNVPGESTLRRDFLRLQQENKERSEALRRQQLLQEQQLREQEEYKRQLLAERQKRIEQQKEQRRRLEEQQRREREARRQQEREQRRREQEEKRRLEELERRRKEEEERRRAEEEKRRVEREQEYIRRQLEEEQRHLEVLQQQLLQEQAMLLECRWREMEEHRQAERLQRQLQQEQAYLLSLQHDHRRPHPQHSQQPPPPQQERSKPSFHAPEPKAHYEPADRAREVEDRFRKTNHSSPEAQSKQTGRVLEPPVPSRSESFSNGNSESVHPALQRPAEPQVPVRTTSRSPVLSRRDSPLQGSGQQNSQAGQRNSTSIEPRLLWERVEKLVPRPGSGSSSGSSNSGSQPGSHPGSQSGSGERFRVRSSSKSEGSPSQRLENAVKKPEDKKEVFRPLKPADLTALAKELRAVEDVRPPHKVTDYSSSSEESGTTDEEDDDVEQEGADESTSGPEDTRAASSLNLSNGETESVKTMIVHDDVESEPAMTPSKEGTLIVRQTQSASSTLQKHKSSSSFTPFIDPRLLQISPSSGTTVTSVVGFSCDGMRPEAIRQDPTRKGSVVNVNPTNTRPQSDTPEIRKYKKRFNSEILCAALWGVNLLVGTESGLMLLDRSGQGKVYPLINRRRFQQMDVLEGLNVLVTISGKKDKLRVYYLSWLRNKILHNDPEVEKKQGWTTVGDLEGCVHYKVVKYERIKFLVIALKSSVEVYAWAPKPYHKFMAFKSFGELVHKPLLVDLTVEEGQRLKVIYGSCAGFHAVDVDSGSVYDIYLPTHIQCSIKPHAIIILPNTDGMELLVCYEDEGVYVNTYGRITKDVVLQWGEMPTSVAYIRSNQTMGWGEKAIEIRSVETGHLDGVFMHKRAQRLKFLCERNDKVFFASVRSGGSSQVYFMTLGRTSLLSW
Description: as §1

Compound | KINOMEscan: MERTK (panel of 442 kinases [1]) | KINOMEscan: MEK2 (panel of 442 kinases [2]) | KINOMEscan: MAP4K4 (panel of 442 kinases [3])
COc1cc(C(=O)N2CCC(N3CCN(C)CC3)CC2)ccc1Nc1ncc2c(n1)N(C)c1ccccc1C(=O)N2C [15 (LRRK2-IN-1)] | 100 | 99 | 85
COc1cc(C(=O)N2CCC(N3CCN(C)CC3)CC2)ccc1Nc1ncc2c(n1)N1CCc3cccc(c31)C(=O)N2C [Compound 24] | – | – | 35
COc1cc(C(=O)N2CCC(N3CCN(C)CC3)CC2)ccc1Nc1ncc2c(n1)N(C1CCCC1)c1ccccc1C(=O)N2C [Compound 25, 11-cyclopentyl-2-((2-methoxy-4-(4-(4-methylpiperazin-1-yl)piperidine-1-carbonyl)phenyl)amino)-5-methyl-5H-benzo[e]pyrimido[5,4-b][1,4]diazepin-6(11H)-one] | 100 | 66 | 98
CCOc1cc(C(=O)N2CCC(N3CCN(C)CC3)CC2)ccc1Nc1ncc2c(n1)N(C1CCCC1)c1ccccc1C(=O)N2C [Compound 26] | 100 | 89 | 96
